Reference: a melting point compilation (Tetko et al.)
Peptide text beside a SMILES is read from it.

| SMILES | melting point [°C] |
| --- | --- |
| CC1CCC(C(C)C)C(OC(=O)c2ccc3ccccc3c2)C1 (centres undefined) | 76 |
| O=S(=O)(Nc1cc(F)c(F)cc1F)C(F)(F)F | 58.5 |
| CCCSc1nnc(S)s1 | 145 to 147 |
| COc1cccc(C=C[N+](=O)[O-])c1OC | 83 to 85 |
| OCC(I)CC(F)(F)C(F)(F)C(F)(F)C(F)(F)C(F)(F)C(F)(F)C(F)(F)C(F)(F)F (centres undefined) | 54 to 55 |
| O=C1NC(=O)C2(c3ccc(Cl)cc3)c3ccccc3CCN12 (centres undefined) | 215 to 216 |
| CC(=O)C(Cc1ccccc1)C(=O)OC1CC(C)CCC1C(C)C (centres undefined) | 68 |
| O=C1c2cccc(O)c2C(=O)c2cccc(O)c21 | 280 |
| COc1ccc([N+](=O)[O-])cc1C(F)(F)F | 79 to 81 |
| c1ccc2sc(SN3CCOCC3)nc2c1 | 85 |
| O=C(O)c1ccc(-c2ccco2)s1 | 187 to 188 |
| O=C(O)CN(CCO)CCO | 190 to 192 |
| Nc1ccc(-c2ccc(N)cc2)cc1 | 124 |
| Cc1cccc(NC(=O)c2cnc(C(C)(C)C)c(Cl)n2)c1 | 99 |
| CC1(C)C(C(=O)c2ccccc2)=Nc2ccccc21 | 83 |
| O=C1OC(c2ccccc2)=NC1=Cc1ccc(-c2cccc([N+](=O)[O-])c2)o1 | 144 to 145 |
| O=C(O)C(c1ccccc1)C1CCCCC1 (centres undefined) | 148 to 151 |
| CC(C)Oc1ccc2c(=O)c(-c3ccccc3)coc2c1 | 115 |
| N#C/C(=N\Nc1ccc(F)cc1)c1nc2ccccc2c(=O)[nH]1 | 215 |
| CCOC(=O)C(C#N)=c1sc(=C(C#N)C(=O)OCC)s1 | 159 to 162 |
| CC(=O)c1nn(-c2ccccc2[N+](=O)[O-])c(=NC(=O)c2ccccc2)s1 | 204 |
| COC(=O)C(C#N)=C(SC)SC | 85 to 87 |

| SMILES | melting point [°C] |
| --- | --- |
| C/C=C/C(=O)NNc1ccccc1 | 190 |
| O=S(=O)(Oc1ccccc1)c1ccccc1C=Cc1ccccc1S(=O)(=O)Oc1ccccc1 | 180 |
| COc1ccc(-c2nc(CCl)no2)cc1 | 60 to 62 |
| O=C(O)c1cccnc1C(=O)O | 228 |
| Clc1ccc(O[Si]23OCCN(CCO2)CCO3)cc1 | 166 |
| NC(=NO)c1cnccc1C(F)(F)F | 183 to 185 |
| CCOc1ccc(C(=S)N2CCOCC2)cc1OC | 119 |
| CCOC(=O)C(C)(C#N)c1ccccc1[N+](=O)[O-] (centres undefined) | 68 |
| CC(C)n1cc(-c2ccc(F)cc2)c2ccccc21 | 97 |
| OCC(Br)=C(Br)CO | 111 to 116 |
| COc1ccc(/C(C(=O)c2ccccc2)=C2/C(=O)N(C(C)=O)c3ccccc32)cc1 | 180 |
| CC(=NNC(N)=O)c1cccc(C(C)=NNC(N)=O)c1 | 238 |
| O=S(=O)(Cl)c1cccc(S(=O)(=O)Cl)c1 | 59 |
| COc1c(C)cc2c(c1C)CC2=O | 51 |
| Cc1ccc(C)c2c1C(=O)N(C)C2O (centres undefined) | 163 |
| c1ccc(/N=N/c2ccc(-c3ccc(NNc4ccccc4)cc3)cc2)cc1 | 172 to 173 |
| CC(=O)CCc1cc2c(c([N+](=O)[O-])c1)CCC(C)N2C(=O)c1ccc([N+](=O)[O-])cc1 (centres undefined) | 115 |
| CC(C)C(C)C=CC(C)C1CCC2C3=CC=C4CC(O)CCC4(C)C3=CCC21C (centres undefined) | 146 |
| COc1ccc(C(C)NCC(OC)OC)cc1O (centres undefined) | 88 |
| CCN1CCN(C(=O)N[C@@H](C(=O)O)c2ccccc2)C(=O)C1=O | 171 |
| NC1CCCCCCC1 | -48 |
| O=Cc1cccc(-c2nccs2)c1 | 67 to 68 |

| SMILES | melting point [°C] |
| --- | --- |
| Cc1cc(C)c2c(=O)n3c(cc2c1)CCCC3 | 62 |
| COc1ccc(C(C)=O)cc1[N+](=O)[O-] | 98 |
| Cc1c(Cl)cccc1S(=O)(=O)Cl | 71 to 73 |
| O=C(Cl)c1cnn2ccccc12 | 116 to 118 |
| OCCN(CCO)CCc1ccc(CSc2ccccc2)cc1 | 80 |
| BrCC=Cc1ccccc1 | 26 to 32 |
| C[C@H](N)C(=O)N[C@@H](C)C(=O)O (H-Ala-Ala-OH) | 286 to 288 |
| Sc1nccc(-c2ccc(Cl)cc2)n1 | 210 to 214 |
| CN(CCOc1ccc(CC2SC(=O)NC2=O)cc1)c1ccccn1 (centres undefined) | 122 |
| CC(C)n1nnc2cc(C(=O)O)ccc21 | 222 to 227 |
| COc1cc(C)nc(N)n1 | 161 |
| Cn1ncc2c(NCCOC(=O)c3cc([N+](=O)[O-])cc([N+](=O)[O-])c3)ncnc21 | 299 |
| Nc1ccc(-n2cccc2)cc1 | 81 |
| [O-][n+]1nc(-n2ccnc2)nc2ccc(Cl)cc21 | 182 |
| Cc1cc(C)c(CCl)cc1CCl | 97 to 99 |
| COC1=C(C(C)(C)C(C)C)C(=O)C(=O)c2ccccc21 | 93.3 to 93.6 |
| CCCC(O)C(CC)CO (centres undefined) | -40 |
| O=C(O)c1ccccc1C(=O)Nc1cccc2ccccc12 | 185 |
| CC(=O)c1ccc(NC(=O)C(C(F)(F)F)C(F)(F)F)cc1 | 174 |
| COc1cc(C(=O)O)ccc1C | 159 |
